Values after ≈ are worked out from the molar mass of the structure shown. Values belong to the molecule of their own block, whether it stands above or below them.
Tests used:
[1] = Plasma clearance in rat; format: ADME, organism-based
[2] = Solubility in PBS buffer at ph 6.5; format: physicochemical
[3] = Bioavailability in monkey; format: ADME, organism-based, Macaca mulatta; details: rhesus monkey, in vivo
[4] = Bioavailability in rat; format: ADME, organism-based; details: in vivo
[5] = Plasma clearance in monkey; format: ADME, organism-based, Macaca mulatta; details: rhesus monkey
[6] = Volume of distribution in monkey; format: ADME, organism-based, Macaca mulatta; details: rhesus monkey, in vivo; read-out: Vdss
[7] = Half life in monkey; format: ADME, organism-based, Macaca mulatta; details: rhesus monkey, in vivo
[8] = Dissociation constant, pKa of the compound; format: physicochemical
[9] = Half life in rat; format: ADME, organism-based; details: in vivo
[10] = Distribution coefficient, log D of the compound; format: physicochemical; details: octanol/water
[11] = Volume of distribution in rat; format: ADME, organism-based; details: in vivo, read-out: Vdss
[12] = Hepatocyte extraction ratio in human; format: ADME, cell-based; details: hepatocytes
Homo sapiens = organism: Homo sapiens; experiment: Inhibition of LPS-induced TNFalpha production in human whole blood; format: functional, organism-based
[13] = target: Mitogen-activated protein kinase 14 (Homo sapiens, UniProt Q16539); experiment: Inhibition of p38alpha
Monocyte = experiment: Inhibition of LPS-induced TNFalpha production in human monocytes; format: functional, cell-based
hERG (KCNH2) = hERG (KCNH2) (Homo sapiens, UniProt Q12809); experiment: Inhibition of hERG channel current in HEK293 cells at 3 uM; format: toxicity, cell-based; details: HEK293 cells that express hERG
Rattus norvegicus = organism: Rattus norvegicus; experiment: Inhibition of LPS-induced TNFalpha release in rat; format: functional
[14] = target: Ribosomal protein S6 kinase alpha-1 (Homo sapiens, UniProt Q15418); experiment: Inhibition of MAPKAP-K1a
[15] = target: T1, 3-phosphoinositide-dependent protein kinase 1 (Homo sapiens, UniProt O15530); experiment: Inhibition of PDK1
T1 sequence (O15530 whole entry): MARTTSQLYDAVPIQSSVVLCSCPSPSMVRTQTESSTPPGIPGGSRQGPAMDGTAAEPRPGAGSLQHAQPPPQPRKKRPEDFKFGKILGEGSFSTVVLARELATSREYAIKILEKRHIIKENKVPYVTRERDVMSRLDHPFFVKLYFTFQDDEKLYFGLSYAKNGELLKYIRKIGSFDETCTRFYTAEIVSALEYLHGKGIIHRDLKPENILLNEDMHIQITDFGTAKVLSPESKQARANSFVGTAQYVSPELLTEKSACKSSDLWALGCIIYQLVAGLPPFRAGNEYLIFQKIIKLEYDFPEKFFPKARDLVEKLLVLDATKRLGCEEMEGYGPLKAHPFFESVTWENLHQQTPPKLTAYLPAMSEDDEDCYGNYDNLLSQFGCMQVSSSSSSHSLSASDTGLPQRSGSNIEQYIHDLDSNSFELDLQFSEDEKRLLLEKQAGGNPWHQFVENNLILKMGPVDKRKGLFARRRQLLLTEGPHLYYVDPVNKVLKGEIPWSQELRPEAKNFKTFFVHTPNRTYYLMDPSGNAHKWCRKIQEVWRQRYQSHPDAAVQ

[16] = target: Mitogen-activated protein kinase 1 (Homo sapiens, UniProt P28482); experiment: Inhibition of ERK2
[17] = target: AMP-activated protein kinase, AMPK; experiment: Inhibition of AMPK; format: protein-complex assay
[18] = Inhibition of phosphorylase kinase
[19] = target: T2, Serine/threonine-protein kinase Sgk1 (Homo sapiens, UniProt O00141); experiment: Inhibition of SGK
T2 sequence (O00141 whole entry): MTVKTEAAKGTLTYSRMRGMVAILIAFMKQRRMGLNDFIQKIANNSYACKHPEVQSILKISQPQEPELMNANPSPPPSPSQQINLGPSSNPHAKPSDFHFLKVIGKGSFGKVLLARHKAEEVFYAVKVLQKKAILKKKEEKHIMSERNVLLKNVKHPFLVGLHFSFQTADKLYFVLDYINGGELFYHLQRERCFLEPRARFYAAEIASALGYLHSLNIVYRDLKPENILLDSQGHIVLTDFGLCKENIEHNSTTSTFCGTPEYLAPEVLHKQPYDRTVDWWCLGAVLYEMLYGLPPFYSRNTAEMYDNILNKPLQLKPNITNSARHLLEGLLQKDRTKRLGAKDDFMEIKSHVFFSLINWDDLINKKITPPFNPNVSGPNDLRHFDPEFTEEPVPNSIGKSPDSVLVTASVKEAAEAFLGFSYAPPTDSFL

[20] = target: T3, Serine/threonine-protein kinase Chk1 (Homo sapiens, UniProt O14757); experiment: Inhibition of CHK1
T3 sequence (O14757 whole entry): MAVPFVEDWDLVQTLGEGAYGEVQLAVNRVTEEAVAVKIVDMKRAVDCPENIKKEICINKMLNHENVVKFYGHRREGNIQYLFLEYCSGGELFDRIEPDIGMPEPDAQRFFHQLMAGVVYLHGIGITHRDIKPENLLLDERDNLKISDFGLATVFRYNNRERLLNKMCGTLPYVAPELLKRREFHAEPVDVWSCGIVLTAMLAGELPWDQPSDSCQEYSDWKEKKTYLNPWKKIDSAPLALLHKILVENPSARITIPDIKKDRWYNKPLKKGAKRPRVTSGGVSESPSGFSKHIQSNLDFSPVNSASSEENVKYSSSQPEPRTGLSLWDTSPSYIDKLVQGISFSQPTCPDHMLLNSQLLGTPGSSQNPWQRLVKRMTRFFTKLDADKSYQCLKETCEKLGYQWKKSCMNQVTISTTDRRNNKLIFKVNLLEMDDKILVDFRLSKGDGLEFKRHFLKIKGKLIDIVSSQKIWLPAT

[21] = target: Dual specificity mitogen-activated protein kinase kinase 1 (Homo sapiens, UniProt Q02750); experiment: Inhibition of MKK1
Casein kinase II = Casein kinase II (Homo sapiens, UniProt P19784+P67870+P68400); experiment: Inhibition of CK2; format: protein-complex assay
[22] = target: RAC-alpha serine/threonine-protein kinase (Homo sapiens, UniProt P31749); experiment: Inhibition of PKBalpha
[23] = target: Tyrosine-protein kinase CSK (Homo sapiens, UniProt P41240); experiment: Inhibition of CSK
[24] = Inhibition of PKC
[25] = target: T4, MAP kinase-activated protein kinase 5 (Homo sapiens, UniProt Q8IW41); experiment: Inhibition of PRAK
T4 sequence (Q8IW41 whole entry): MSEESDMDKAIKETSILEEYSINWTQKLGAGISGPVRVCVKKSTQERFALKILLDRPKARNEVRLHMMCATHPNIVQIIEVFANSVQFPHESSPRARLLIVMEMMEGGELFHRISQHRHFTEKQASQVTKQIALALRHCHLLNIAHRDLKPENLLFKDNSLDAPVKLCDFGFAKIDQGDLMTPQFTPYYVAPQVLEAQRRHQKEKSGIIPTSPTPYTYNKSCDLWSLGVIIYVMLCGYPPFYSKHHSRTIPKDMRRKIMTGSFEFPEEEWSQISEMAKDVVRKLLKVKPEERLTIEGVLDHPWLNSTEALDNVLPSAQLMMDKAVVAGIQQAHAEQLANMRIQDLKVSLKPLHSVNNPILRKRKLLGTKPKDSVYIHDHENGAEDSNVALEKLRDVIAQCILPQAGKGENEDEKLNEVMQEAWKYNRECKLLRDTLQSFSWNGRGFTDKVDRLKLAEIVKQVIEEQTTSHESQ

[26] = target: Ribosomal protein S6 kinase alpha-5 (Homo sapiens, UniProt O75582); experiment: Inhibition of MSK1
[27] = target: Protein kinase C alpha type (Homo sapiens, UniProt P17252); experiment: Inhibition of PKCalpha
[28] = target: c-Jun N-terminal kinase, JNK (Homo sapiens, UniProt P45983+P53779+P45984); experiment: Inhibition of JNK; format: protein assay
[29] = target: MAP kinase-activated protein kinase 2 (Homo sapiens, UniProt P49137); experiment: Inhibition of MAPKAP-K2
[30] = target: Cyclin-dependent kinase 2 (Homo sapiens, UniProt P24941); experiment: Inhibition of CDK2
[31] = target: Rho-associated protein kinase 2 (Homo sapiens, UniProt O75116); experiment: Inhibition of ROCK2
[32] = target: Ribosomal protein S6 kinase (P70S6K) (Homo sapiens, UniProt P23443+Q9UBS0); experiment: Inhibition of P70S6K; format: protein-complex assay
[33] = Inhibition of PI3K
[34] = target: Dual specificity tyrosine-phosphorylation-regulated kinase 1A (Homo sapiens, UniProt Q13627); experiment: Inhibition of DYRK1a
[35] = target: Glycogen synthase kinase-3 beta (Homo sapiens, UniProt P49841); experiment: Inhibition of GSK3-beta
[36] = Permeability from apical to basolateral side of Caco-2 cell membrane; format: ADME, cell-based; details: human
[37] = Permeability from basolateral to apical side of Caco-2 cell membrane; format: ADME, cell-based; details: human
[38] = Hepatocyte microsomal extraction ratio in human; details: hepatic microsomes

Sequence of Mitogen-activated protein kinase 14 (Q16539 whole entry): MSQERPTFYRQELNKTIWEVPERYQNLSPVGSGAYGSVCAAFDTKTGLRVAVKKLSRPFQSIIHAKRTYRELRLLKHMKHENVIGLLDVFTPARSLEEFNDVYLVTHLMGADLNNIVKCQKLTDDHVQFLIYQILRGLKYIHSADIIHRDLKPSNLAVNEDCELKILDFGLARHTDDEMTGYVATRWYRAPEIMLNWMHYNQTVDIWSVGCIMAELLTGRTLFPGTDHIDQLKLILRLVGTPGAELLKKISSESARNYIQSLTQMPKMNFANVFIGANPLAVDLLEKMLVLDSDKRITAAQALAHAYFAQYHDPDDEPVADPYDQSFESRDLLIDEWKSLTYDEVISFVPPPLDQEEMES
Sequence of Mitogen-activated protein kinase 1 (P28482 whole entry): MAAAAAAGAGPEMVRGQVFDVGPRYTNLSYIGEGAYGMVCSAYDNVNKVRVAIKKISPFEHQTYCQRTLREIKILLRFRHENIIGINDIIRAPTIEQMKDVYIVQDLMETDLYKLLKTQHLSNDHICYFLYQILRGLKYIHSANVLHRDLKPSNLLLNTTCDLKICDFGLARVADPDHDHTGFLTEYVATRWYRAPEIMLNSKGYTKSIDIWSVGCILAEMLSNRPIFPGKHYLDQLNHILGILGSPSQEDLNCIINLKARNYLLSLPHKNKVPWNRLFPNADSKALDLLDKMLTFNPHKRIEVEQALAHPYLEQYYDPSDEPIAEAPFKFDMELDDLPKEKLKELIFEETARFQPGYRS
Sequence of MAP kinase-activated protein kinase 2 (P49137 whole entry): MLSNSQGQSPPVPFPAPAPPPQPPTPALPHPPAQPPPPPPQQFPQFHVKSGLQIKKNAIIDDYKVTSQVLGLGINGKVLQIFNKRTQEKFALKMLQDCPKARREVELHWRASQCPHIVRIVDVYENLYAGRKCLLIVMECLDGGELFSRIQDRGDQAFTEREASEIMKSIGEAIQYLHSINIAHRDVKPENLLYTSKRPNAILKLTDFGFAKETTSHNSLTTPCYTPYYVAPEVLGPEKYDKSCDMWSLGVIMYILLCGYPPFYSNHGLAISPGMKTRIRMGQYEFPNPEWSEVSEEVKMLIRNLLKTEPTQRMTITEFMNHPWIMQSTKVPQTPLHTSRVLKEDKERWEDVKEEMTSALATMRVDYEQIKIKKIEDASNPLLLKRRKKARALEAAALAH
Sequence of RAC-alpha serine/threonine-protein kinase (P31749 whole entry): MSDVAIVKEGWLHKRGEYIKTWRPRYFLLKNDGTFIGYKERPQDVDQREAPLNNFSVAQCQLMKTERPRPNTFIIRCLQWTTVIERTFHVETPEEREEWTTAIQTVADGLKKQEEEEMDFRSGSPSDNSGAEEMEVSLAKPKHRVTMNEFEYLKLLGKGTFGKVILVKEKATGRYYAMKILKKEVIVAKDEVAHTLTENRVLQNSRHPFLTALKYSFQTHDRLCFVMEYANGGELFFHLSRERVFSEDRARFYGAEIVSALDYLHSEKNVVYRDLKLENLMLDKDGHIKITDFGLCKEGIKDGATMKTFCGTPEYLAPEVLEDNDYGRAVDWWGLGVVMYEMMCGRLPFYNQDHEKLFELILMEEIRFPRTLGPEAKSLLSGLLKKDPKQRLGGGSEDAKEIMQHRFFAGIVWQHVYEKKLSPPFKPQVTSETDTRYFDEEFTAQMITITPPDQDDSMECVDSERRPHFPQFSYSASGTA
Sequence of Dual specificity mitogen-activated protein kinase kinase 1 (Q02750 whole entry): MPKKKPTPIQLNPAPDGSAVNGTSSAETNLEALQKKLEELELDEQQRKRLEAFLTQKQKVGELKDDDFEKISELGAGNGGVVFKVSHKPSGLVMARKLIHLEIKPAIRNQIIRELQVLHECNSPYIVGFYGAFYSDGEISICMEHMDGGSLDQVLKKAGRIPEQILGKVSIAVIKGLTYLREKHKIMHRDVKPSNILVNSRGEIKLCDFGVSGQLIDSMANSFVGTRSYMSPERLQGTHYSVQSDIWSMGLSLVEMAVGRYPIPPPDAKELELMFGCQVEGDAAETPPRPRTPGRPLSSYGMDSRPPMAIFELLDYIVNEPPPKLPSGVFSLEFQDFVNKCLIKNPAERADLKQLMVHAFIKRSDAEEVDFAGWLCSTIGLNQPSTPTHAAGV
Sequence of Rho-associated protein kinase 2 (O75116 whole entry): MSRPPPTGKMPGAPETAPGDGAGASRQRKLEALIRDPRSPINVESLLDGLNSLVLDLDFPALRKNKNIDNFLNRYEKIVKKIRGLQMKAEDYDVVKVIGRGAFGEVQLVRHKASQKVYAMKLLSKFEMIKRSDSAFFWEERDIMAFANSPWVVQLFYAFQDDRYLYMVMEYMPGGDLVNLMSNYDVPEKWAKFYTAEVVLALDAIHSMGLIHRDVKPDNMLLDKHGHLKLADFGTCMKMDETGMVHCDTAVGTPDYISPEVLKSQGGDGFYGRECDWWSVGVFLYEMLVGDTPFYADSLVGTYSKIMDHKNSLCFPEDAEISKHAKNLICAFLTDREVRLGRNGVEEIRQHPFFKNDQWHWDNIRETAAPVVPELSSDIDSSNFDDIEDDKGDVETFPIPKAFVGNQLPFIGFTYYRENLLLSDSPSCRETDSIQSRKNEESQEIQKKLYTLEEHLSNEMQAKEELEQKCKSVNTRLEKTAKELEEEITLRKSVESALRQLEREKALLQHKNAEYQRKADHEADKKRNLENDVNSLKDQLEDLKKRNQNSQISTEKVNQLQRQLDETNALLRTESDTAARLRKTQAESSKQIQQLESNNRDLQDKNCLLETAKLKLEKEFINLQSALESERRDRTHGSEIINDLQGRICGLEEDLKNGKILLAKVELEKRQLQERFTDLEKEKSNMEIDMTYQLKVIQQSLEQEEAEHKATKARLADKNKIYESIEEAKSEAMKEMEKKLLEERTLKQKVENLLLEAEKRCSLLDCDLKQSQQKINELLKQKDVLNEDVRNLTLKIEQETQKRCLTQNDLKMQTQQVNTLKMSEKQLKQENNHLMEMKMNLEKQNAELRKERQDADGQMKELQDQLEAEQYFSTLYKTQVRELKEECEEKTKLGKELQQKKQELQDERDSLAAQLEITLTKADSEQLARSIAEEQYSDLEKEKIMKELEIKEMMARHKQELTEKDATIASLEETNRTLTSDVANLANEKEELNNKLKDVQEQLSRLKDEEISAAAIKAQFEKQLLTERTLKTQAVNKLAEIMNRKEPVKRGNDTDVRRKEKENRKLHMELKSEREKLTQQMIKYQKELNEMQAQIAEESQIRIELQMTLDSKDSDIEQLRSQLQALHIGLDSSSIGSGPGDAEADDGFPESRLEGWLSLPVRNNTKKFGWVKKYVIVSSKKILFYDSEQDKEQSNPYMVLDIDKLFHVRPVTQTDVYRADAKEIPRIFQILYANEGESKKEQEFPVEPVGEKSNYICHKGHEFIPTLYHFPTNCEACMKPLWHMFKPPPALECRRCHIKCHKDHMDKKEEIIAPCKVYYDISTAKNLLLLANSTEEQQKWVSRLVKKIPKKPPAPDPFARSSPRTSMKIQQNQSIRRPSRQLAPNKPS
Sequence of Ribosomal protein S6 kinase alpha-5 (O75582 whole entry): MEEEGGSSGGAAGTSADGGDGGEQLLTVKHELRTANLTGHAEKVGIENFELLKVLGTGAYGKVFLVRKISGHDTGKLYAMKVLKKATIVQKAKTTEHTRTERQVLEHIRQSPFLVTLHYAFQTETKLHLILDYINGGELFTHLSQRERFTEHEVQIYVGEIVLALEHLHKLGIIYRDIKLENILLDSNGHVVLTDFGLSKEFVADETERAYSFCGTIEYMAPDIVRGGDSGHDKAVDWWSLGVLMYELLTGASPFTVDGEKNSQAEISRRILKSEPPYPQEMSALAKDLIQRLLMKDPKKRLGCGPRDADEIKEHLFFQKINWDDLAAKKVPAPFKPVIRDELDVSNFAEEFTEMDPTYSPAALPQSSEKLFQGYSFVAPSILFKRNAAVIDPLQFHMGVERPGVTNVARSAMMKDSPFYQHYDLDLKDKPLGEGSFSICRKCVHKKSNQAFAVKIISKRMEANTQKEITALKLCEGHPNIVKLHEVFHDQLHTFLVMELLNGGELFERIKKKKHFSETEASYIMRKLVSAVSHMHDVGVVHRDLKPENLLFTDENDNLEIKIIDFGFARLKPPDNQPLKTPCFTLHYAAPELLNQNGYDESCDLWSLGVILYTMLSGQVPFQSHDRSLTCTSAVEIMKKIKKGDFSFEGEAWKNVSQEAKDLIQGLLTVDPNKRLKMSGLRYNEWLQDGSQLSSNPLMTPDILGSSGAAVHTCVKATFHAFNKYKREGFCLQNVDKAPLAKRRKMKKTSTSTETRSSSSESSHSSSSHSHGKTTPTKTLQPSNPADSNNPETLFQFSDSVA

Compound: CCOc1ccccc1-c1nnc2ccc(-c3ocnc3-c3ccc(F)cc3)cn12
hepatic extraction ratio [12]: > 0.5 | IC50 (Homo sapiens): 0.697 µM | IC50 [13]: 0.0004 µM | IC50 (Monocyte): 0.01 µM

Compound: CC1(c2nnc3ccc(-c4ocnc4-c4ccc(F)cc4F)cn23)CC1
hepatic extraction ratio [12]: > 0.5 | IC50 (Homo sapiens): 0.245 µM | IC50 [13]: 0.0007 µM | IC50 (Monocyte): 0.03 µM

Compound: CC(C)c1nnc2ccc(-c3ocnc3-c3cccc(Cl)c3)cn12
clearance [1]: 17 mL/min/kg | solubility [2]: 5.2 µg/mL (≈ 15.3 µM) | IC50 (Homo sapiens): 0.55 µM | bioavailability [3]: 19% | bioavailability [4]: 37% | clearance [5]: 15 mL/min/kg | IC50 [13]: 0.0135 µM | Vd [6]: 1 L/kg | half-life [7]: 1.1 h | inhibition at 3 µM (hERG (KCNH2)): 14% | half-life [9]: 1.6 h | IC50 (Monocyte): 0.0523 µM | ED50 (Rattus norvegicus): 2.4 mg/kg | Vd [11]: 1 L/kg

Compound: CC(C)c1nnc2ccc(-c3ocnc3-c3cc(F)c(F)cc3F)cn12
IC50 [14]: > 10 µM | IC50 [15]: > 10 µM | IC50 [16]: > 10 µM | IC50 [17]: > 10 µM | IC50 [18]: > 10 µM | IC50 [19]: > 10 µM | IC50 [20]: > 10 µM | IC50 [21]: > 10 µM | IC50 (Casein kinase II): > 10 µM | IC50 (Homo sapiens): 0.263 µM | IC50 [22]: > 10 µM | IC50 [23]: > 10 µM | IC50 [24]: > 10 µM | IC50 [13]: 0.0032 µM | IC50 [25]: > 10 µM | IC50 [26]: > 10 µM | IC50 [27]: > 10 µM | IC50 [28]: > 10 µM | IC50 [29]: > 10 µM | IC50 (Monocyte): 0.0197 µM | IC50 [30]: > 10 µM | IC50 [31]: > 10 µM | IC50 [32]: > 10 µM | IC50 [33]: > 10 µM | IC50 [34]: > 10 µM | IC50 [35]: > 10 µM

Compound: CC(C)c1nnc2ccc(-c3[nH]cnc3-c3cc(F)ccc3F)cn12
IC50 (Homo sapiens): 0.297 µM | Papp A→B [36]: 1 ×10⁻⁶ cm/s | IC50 [13]: 0.0062 µM | IC50 (Monocyte): 0.0245 µM | Papp B→A [37]: 32 ×10⁻⁶ cm/s

Compound: CC(C)c1nnc2ccc(-c3cnoc3-c3cc(F)ccc3F)cn12
Papp A→B [36]: 41 ×10⁻⁶ cm/s | IC50 [13]: 0.0332 µM | IC50 (Monocyte): 0.063 µM | Papp B→A [37]: 29 ×10⁻⁶ cm/s

Further lines, with some results ahead:

clearance [1]: 12 mL/min/kg | solubility [2]: 29.6 µg/mL (≈ 91.8 µM) | bioavailability [3]: 75% | bioavailability [4]: 85% | clearance [5]: 16 mL/min/kg | Vd [6]: 1.8 L/kg | half-life [7]: 1.3 h | pKa [8]: 2.86 | half-life [9]: 0.7 h | logD [10]: 2.18 | Vd [11]: 0.8 L/kg
Compound: CC(C)c1nnc2ccc(-c3ocnc3-c3ccc(F)cc3)cn12

hepatic extraction ratio [12]: > 0.5 | IC50 (Homo sapiens): 4.65 µM | IC50 [13]: 0.0109 µM | IC50 (Monocyte): 0.186 µM
Compound: Fc1ccc(-c2ncoc2-c2ccc3nnc(C4CC4)n3c2)cc1

clearance [1]: 17 mL/min/kg | solubility [2]: 2.8 µg/mL (≈ 7.85 µM) | IC50 (Homo sapiens): 0.631 µM | bioavailability [3]: 31% | bioavailability [4]: 9.4% | clearance [5]: 5.7 mL/min/kg | IC50 [13]: 0.0124 µM | Vd [6]: 1.4 L/kg | half-life [7]: 4.7 h | half-life [9]: 0.9 h | IC50 (Monocyte): 0.0472 µM | Vd [11]: 1.3 L/kg
Compound: CC(C)c1nnc2ccc(-c3ocnc3-c3ccc(F)c(Cl)c3)cn12
ED50 (Rattus norvegicus): 0.5 mg/kg

hepatic extraction ratio [12]: > 0.5 | IC50 (Homo sapiens): 0.6 µM | IC50 [13]: 0.0022 µM | IC50 (Monocyte): 0.02 µM | hepatic extraction ratio [38]: < 0.3
Compound: CC(C)c1nnc2ccc(-c3ocnc3-c3ccc(Cl)cc3F)cn12

hepatic extraction ratio [12]: > 0.5 | IC50 (Homo sapiens): 5.35 µM | IC50 [13]: 0.0123 µM | IC50 (Monocyte): 0.09 µM
Compound: Fc1ccc(-c2ncoc2-c2ccc3nnc(-c4ccccc4)n3c2)cc1

Source: ChEMBL document CHEMBL1145312, “Structure-activity relationships of triazolopyridine oxazole p38 inhibitors: identification of candidates for clinical development” (Bioorg Med Chem Lett, 2006)
